Tests used:
skin = details: applied directly to the skin; Xi et al. 2000; cited from earlier work
COX-2 = test: Western Blotting of COX-2 expression in porcine skin after topical application; assay type: cell-based; details: topically applied, water control assigned 100%, FIG. 5
Description: A Western Blotting experiment was carried out to determine the effect of topically applied representative compounds of the invention DGLA and 15-HETrE on the expression of COX-2 in porcine skin. Water was used as a control.
The porcine skin membranes (as described in Example 1) were gently cleaned with de-ionised water before being homogenized (Silverson, Chesham, UK) in a RIPA lysis buffer [50 mM Tris-HCl (PH 7.4), 150 mM NaCl, 1 mM PMSF, 1 mM EDTA, 5 μg mL^−1 aprotinin, 5 μg mL^−1 leupeptin, 1% Triton X-100, 1% sodium deoxycholate, 0.1% SDS]. After 15 min incubation on ice, the lysates were clarified by centrifugation at 14000×g for 2×15 min and the supernatant stored at −80° C. for subsequent protein analysis.
Aliquots of 30 μg total protein were separated by SDS-PAGE, transferred to nitrocelullose membranes using the Trans-Blot electrophoretic Transfer Cell and briefly stained with Ponceau S to verify effective transfer. Immunoblots were incubated for 1 h in a blocking solution [tris-buffered saline (TBS)-Tween 20 containing 5% (w/v) commercial skimmed milk powder (Marvel) at room temperature. After washing, the membrane was probed overnight at 4° C. with COX-2 antibody at 1:1000, 5-LOX at 1:1000 and iNOS at 1:500 in (1:20 and 1:100 western blocking reagent and sodium azide solution respectively made up to volume with TBS tween). […]

COX-2 enzymes = test: Immunohistochemistry assay of COX-2 enzymes in ex vivo porcine ear skin (Franz diffusion cell, diaminobenzidine staining); assay type: cell-based; details: substance as donor phase in Franz cell, after six hours versus 0 hours

Row | Structure (SMILES) | antiproliferative properties (skin) | COX-2 expression relative to the control (COX-2) | amount of dark stain (diaminobenzidine, COX-2 enzymes present in the skin) (COX-2 enzymes)
1 | CCCCCC(O)/C=C/C=C\C/C=C\CCCCCCC(=O)O (stereo not drawn) [15-HETrE, 15-Hydroxy-eicosa-8Z, 11Z, 13E-trienoic acid] | antiproliferative properties | significant reduction | the amount of dark stain has reduced
2 | CCCCC/C=C\C/C=C\C/C=C\CCCCCCC(=O)O [DGLA, Eicosa-8Z, 11Z, 14Z-trienoic acid] | – | significant reduction | the amount of dark stain has reduced
3 | CC(C(=O)O)c1cccc(C(=O)c2ccccc2)c1 (stereo not drawn) [ketoprofen, reference compound] | – | – | the amount of dark stain has reduced

Source: patent publication US9421163B2, “Topical compositions comprising polyunsaturated fatty acids” (Dignity Sciences Limited, priority 2009, dated 2016)
